Several values for one entry are separate records, joined by “and”; a condition that tells them apart may be missing. Equal entries are not always repeated. Toxic doses and inconclusive results are not listed. No stated cut-off is given here; in the data, active means T/C of 150% or more; inactive means T/C below 125%.
System: L1210 leukemia ip in BDF1 mice, survival T/C
Assay: NCI In Vivo Anticancer Drug Screen. Data for tumor model L1210 Leukemia (intraperitoneal) in B6D2F1 (BDF1) mice
Conditions: endpoint: mean survival time, higher = longer survival
Procedure, shortened: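 Read-out is survival time, reported as the treated-group measurement over the vehicle-control measurement.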

[1] = dose: 100.0 mg/kg/injection, schedule: Q01DX009 (ip), vehicle: Klucel (hydroxypropylcellulose) (HPC)
[2] = dose: 200.0 mg/kg/injection, schedule: Q01DX009 (ip), vehicle: Klucel (hydroxypropylcellulose) (HPC)
[3] = dose: 400.0 mg/kg/injection, schedule: Q01DX009 (ip), vehicle: Klucel (hydroxypropylcellulose) (HPC)
[4] = dose: 100.0 mg/kg/injection, schedule: Q04DX003 (ip), vehicle: saline with Tween-80
[5] = dose: 200.0 mg/kg/injection, schedule: Q04DX003 (ip), vehicle: saline with Tween-80
[6] = dose: 400.0 mg/kg/injection, schedule: Q04DX003 (ip), vehicle: saline with Tween-80
[7] = dose: 100.0 mg/kg/injection, schedule: Q01DX001 (ip), vehicle: saline with Tween-80
[8] = dose: 200.0 mg/kg/injection, schedule: Q01DX001 (ip), vehicle: saline with Tween-80

Measured: T/C

C=CCOCC(O)C[As](=O)(O)c1ccc(Cl)cc1 (centres undefined)
inactive: dose: 1.56 mg/kg/injection, schedule: Q04DX003 (ip), vehicle: saline with Tween-80 104 % of control | dose: 3.13 mg/kg/injection, schedule: Q04DX003 (ip), vehicle: saline with Tween-80 104 % of control | dose: 6.25 mg/kg/injection, schedule: Q04DX003 (ip), vehicle: saline with Tween-80 112 % of control

CCc1ccccc1NC(=O)Nc1cc(C)on1
inactive: [1] 103 % of control | [2] 110 % of control | [3] 107 % of control

Clc1ccc(/C=C/c2nc(Cl)c(-c3ccc(Cl)cc3)c(Cl)n2)cc1
inactive: dose: 75.0 mg/kg/injection, schedule: Q01DX001 (ip), vehicle: saline 105 % of control | dose: 150.0 mg/kg/injection, schedule: Q01DX001 (ip), vehicle: saline 92 % of control | dose: 150.0 mg/kg/injection, schedule: Q04DX003 (ip), vehicle: Klucel (hydroxypropylcellulose) (HPC) 113 % of control | dose: 300.0 mg/kg/injection, schedule: Q01DX001 (ip), vehicle: saline 97 % of control | dose: 300.0 mg/kg/injection, schedule: Q04DX003 (ip), vehicle: Klucel (hydroxypropylcellulose) (HPC) 92 % of control

O=C(O)c1cc(-c2ccc(Cl)cc2)nc2c(-c3ccccc3)cccc12
inactive: [4] 95 % of control | [5] 95 % of control | [6] 90 % of control

CC(=O)Nc1ccc(NC(=O)c2ccc(Cl)cc2)cc1
inactive: dose: 50.0 mg/kg/injection, schedule: Q01DX001 (ip), vehicle: saline with Tween-80 95 % of control | [7] 95 % of control | dose: 100.0 mg/kg/injection, schedule: Q01DX009 (ip), vehicle: saline with Tween-80 97 % of control and 87 % of control | dose: 100.0 mg/kg/injection, schedule: Q04DX002 (ip), vehicle: saline with Tween-80 90 % of control and 91 % of control | [4] 92 % of control | [8] 90 % of control | dose: 200.0 mg/kg/injection, schedule: Q01DX009 (ip), vehicle: saline with Tween-80 95 % of control and 97 % of control | dose: 200.0 mg/kg/injection, schedule: Q04DX002 (ip), vehicle: saline with Tween-80 93 % of control and 97 % of control | [5] 89 % of control | dose: 400.0 mg/kg/injection, schedule: Q01DX001 (ip), vehicle: saline with Tween-80 87 % of control | dose: 400.0 mg/kg/injection, schedule: Q01DX009 (ip), vehicle: saline with Tween-80 97 % of control and 90 % of control | dose: 400.0 mg/kg/injection, schedule: Q04DX002 (ip), vehicle: saline with Tween-80 90 % of control and 92 % of control | [6] 87 % of control

C1COC(COCC2CO2)C1 (centres undefined)
inactive: dose: 100.0 mg/kg/injection, schedule: Q01DX009 (ip), vehicle: saline 100 % of control | dose: 100.0 mg/kg/injection, schedule: Q04DX002 (ip), vehicle: saline 98 % of control and 100 % of control and 120 % of control | dose: 100.0 mg/kg/injection, schedule: Q04DX003 (ip), vehicle: saline 99 % of control | dose: 200.0 mg/kg/injection, schedule: Q01DX009 (ip), vehicle: saline 92 % of control | dose: 200.0 mg/kg/injection, schedule: Q04DX002 (ip), vehicle: saline 103 % of control and 109 % of control and 111 % of control | dose: 200.0 mg/kg/injection, schedule: Q04DX003 (ip), vehicle: saline 98 % of control | dose: 400.0 mg/kg/injection, schedule: Q01DX009 (ip), vehicle: saline 93 % of control | dose: 400.0 mg/kg/injection, schedule: Q04DX002 (ip), vehicle: saline 98 % of control and 102 % of control (2×) | dose: 400.0 mg/kg/injection, schedule: Q04DX003 (ip), vehicle: saline 105 % of control

Cc1cc[n+]([O-])cc1C
inactive: [1] 101 % of control | dose: 100.0 mg/kg/injection, schedule: Q04DX002 (ip), vehicle: Klucel (hydroxypropylcellulose) (HPC) 98 % of control | [2] 96 % of control | dose: 200.0 mg/kg/injection, schedule: Q04DX002 (ip), vehicle: Klucel (hydroxypropylcellulose) (HPC) 101 % of control

CCCCCCCNCCC#N
inactive: [7] 95 % of control | [8] 89 % of control

Cn1ncc2cncnc21
inactive: dose: 100.0 mg/kg/injection, schedule: Q01DX001 (ip), vehicle: saline 103 % of control | dose: 200.0 mg/kg/injection, schedule: Q01DX001 (ip), vehicle: saline 103 % of control | dose: 400.0 mg/kg/injection, schedule: Q01DX001 (ip), vehicle: saline 103 % of control

O=C(O)c1cccc(OCCCOc2ccccc2)c1
inactive: [1] 92 % of control | [2] 90 % of control | [3] 95 % of control

CC1(C)OC(CO)C2OC(C)(C)OC(CO)C2O1 (centres undefined)
inactive: dose: 100.0 mg/kg/injection, schedule: Q01DX001 (ip), vehicle: carboxymethylcellulose (CMC) 98 % of control | dose: 200.0 mg/kg/injection, schedule: Q01DX001 (ip), vehicle: carboxymethylcellulose (CMC) 98 % of control | dose: 400.0 mg/kg/injection, schedule: Q01DX001 (ip), vehicle: carboxymethylcellulose (CMC) 95 % of control

O=[N+]([O-])c1cc(Cl)c(Cl)cc1N1CCCC1
inactive: dose: 100.0 mg/kg/injection, schedule: Q04DX003 (ip), vehicle: Klucel (hydroxypropylcellulose) (HPC) 93 % of control | dose: 200.0 mg/kg/injection, schedule: Q04DX003 (ip), vehicle: Klucel (hydroxypropylcellulose) (HPC) 88 % of control | dose: 400.0 mg/kg/injection, schedule: Q04DX003 (ip), vehicle: Klucel (hydroxypropylcellulose) (HPC) 101 % of control
